The target in this experiment is human MRGPRD (Homo sapiens, UniProt Q8TDS7). Put plainly: MRGPRD antagonist activity, IP-One HTRF assay in CHO cells stably expressing human MRGPRD (versus 100 μM β-Alanine agonist). Format: cell-based. On the procedure: Chinese Hamster Ovary (CHO) cells stably expressing human MRGPRD (Eurofins, San Diego CA) were plated in a 384-well plate at 20,000 cells per well in 12 μL of Optimem (Fisher Scientific 11-058-021). Plates were kept in the incubator at 37° C. overnight. Antagonists were solubilized at a concentration of 10 mM in DMSO, and the agonists were solubilized to stock concentrations of either 50 mM in H2O (β-Alanine) or 10 mM in DMSO (all others) and then diluted in assay buffer (final concentrations of 5.7 mM Tris-HCl, 43 mM NaCl, 50 mM LiCl, pH=8). The concentration of DMSO was normalized across the plate. Antagonists were added to the plate using a Tecan D300 Digital Dispenser at nanoliter/picoliter volumes and 2 μL of agonists in assay buffer were added to each well for a final assay volume of 14 μL. Plates were covered and incubated for 1 h at 37° C. and then for 1 h at room temperature. IP-1 standards and HTRF detection reagents were added according to an IP-One-Gq Kit purchased from Cisbio (part number 62IPAPEJ) and incubated in the dark for 1 h at room temperature. Assay plates were read on either a Molecular Devices SpectraMax iD5 plate reader or a BMG ClarioStar plate reader. The HTRF ratio was calculated form the raw data and graphed using GraphPad Prism to calculate IC50 values. Data are expressed as average IC50 values and average percent antagonism calculated as a percent of the maximum efficacy response. For these studies, the variability of the data was assessed by determining the standard error of mean (SEM).
The activity ranges are denoted as follows: “+++++” denotes antagonist activity <100 nM; “++++” denotes antagonist activity between 100 and 500 nM; “+++” denotes activity between 500 and 1000 nM; “++” denotes activity between 1000 and 3000 nM; and “+” denotes activity >3000 nM.
In general terms: TR-FRET usually uses a lanthanide donor and a delayed reading to cut background.

Bounds are passed on as bounds.

The term IC50 denotes the concentration needed to halve the response being measured. High values mean a need for much substance, low ones inhibition by little substance.

Chain of human MRGPRD (Q8TDS7 whole entry): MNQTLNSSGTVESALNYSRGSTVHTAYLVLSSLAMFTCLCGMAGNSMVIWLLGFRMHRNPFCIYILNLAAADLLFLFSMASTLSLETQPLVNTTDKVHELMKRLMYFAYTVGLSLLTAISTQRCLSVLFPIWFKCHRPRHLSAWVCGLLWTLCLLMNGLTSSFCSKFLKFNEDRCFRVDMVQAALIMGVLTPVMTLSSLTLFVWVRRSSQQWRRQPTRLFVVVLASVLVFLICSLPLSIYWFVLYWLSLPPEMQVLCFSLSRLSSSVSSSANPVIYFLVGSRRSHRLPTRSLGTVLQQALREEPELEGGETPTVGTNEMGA

`COc1cccc(-c2nc([C@H]3CCCN(C(=O)Cc4cccc(F)c4)C3)n3ccccc23)c1` [Compound 12-16] registered an IC50 of 1000 to 3000 nM.
In turn, `CN(C)c1ccc(NC(=O)N2CCC[C@@H](c3nc(-c4csc5ccccc45)c4ccccn34)C2)cc1` [Compound 10-47] came in with an IC50 of 100 to 500 nM.
The result for `COc1cccc(-c2nc([C@@H]3CCCN(C(=O)Nc4ccc5c(c4)ncn5C)C3)n3ccccc23)c1` [Compound 5-51] reads less than 100 nM; that for `CCOc1cccc(-c2nc([C@@H]3CCCN(C(=O)Nc4ccc(N(C)C)cc4)C3)n3ccccc23)c1` [Compound 10-4], less than 100 nM; that for `COc1cccc(-c2nc([C@@H]3CCCN(C(=O)Nc4ccc(C)cc4C)C3)n3ccccc23)c1` [Compound 5-25], less than 100 nM.
Take `COc1cccc(-c2nc([C@@H]3CCCN(C(=O)Nc4ccccc4F)C3)n3ccccc23)c1` [Compound 5-12]: the IC50 was less than 100 nM.
The result for `CNC(=O)N1CCC[C@H](c2nc(-c3cccc(OC)c3)c3ccccn23)C1` [Compound 2-2] reads more than 3000 nM; that for `CN(C)c1ccc(NC(=O)N2CCC[C@@H](c3nc(-c4ccc(-c5ccccc5)cc4)c4ccccn34)C2)cc1` [Compound 10-33], more than 3000 nM.
Consider `CN(C)c1ccc(NC(=O)N2CCC[C@@H](c3nc(-c4ccc(C#N)cc4)c4ccccn34)C2)cc1` [Compound 10-23], for which the IC50 is 500 to 1000 nM.
The result for `COc1cccc(-c2nc([C@@H]3CCN(C(=O)Nc4ccccc4F)C3)n3ccccc23)c1` [Compound 21-1, (R)—N-(2-fluorophenyl)-3-(1-(3-methoxyphenyl)imidazo[1,5-a]pyridin-3-yl)pyrrolidine-1-carboxamide] reads 500 to 1000 nM.
Consider `COc1cccc(-c2nc([C@@H]3CCCN(C(=O)Nc4ccc5c(c4)CCC(C)(C)O5)C3)n3ccccc23)c1` [Compound 5-47], for which the IC50 was less than 100 nM.
The result for `CN(C)c1ccc(NC(=O)N2CCC[C@@H](c3nc(C4=CCCCC4)c4ccccn34)C2)cc1` [Compound 10-44] reads 100 to 500 nM; that for `CC(=O)c1cccc(-c2nc([C@@H]3CCCN(C(=O)Nc4ccc(N(C)C)cc4)C3)n3ccccc23)c1` [Compound 10-7], less than 100 nM; that for `COc1cccc(-c2nn(-c3cccc(C(=O)Nc4cccc(N(C)C)c4)c3)c3ncccc23)c1` [Compound 24-2], 500 to 1000 nM.
Turning to `COc1cccc(-c2nc([C@H]3CCCN(C(=O)Nc4ccccc4)C3)n3ccccc23)c1` [Compound 3-29], the half-maximal inhibitory concentration (IC50) is 1000 to 3000 nM.
The result for `COc1cccc(-c2nn(-c3cccc(C(=O)Nc4ccc(N(C)C)cc4)c3)c3ncccc23)c1` [Compound 24-1, N-(4-(dimethylamino)phenyl)-3-(3-(3-methoxyphenyl)-1H-pyrazolo[3,4-b]pyridin-1-yl)benzamide] reads 100 to 500 nM.
The result for `COc1cccc(-c2nc([C@@H]3CCCN(C(=O)Nc4nccs4)C3)n3ccccc23)c1` [Compound 5-67] reads less than 100 nM.
Turning to `CNc1ccc(NC(=O)N2CCC[C@@H](c3nc(-c4cccc(OC)c4)c4ccccn34)C2)cc1` [Compound 7-1, (R)-3-(1-(3-methoxyphenyl)imidazo[1,5-a]pyridin-3-yl)-N-(4-(methylamino)phenyl)piperidine-1-carboxamide], the concentration for half-maximal inhibition (IC50) was less than 100 nM.
The result for `CN(C)c1ccc(NC(=O)N2CCC[C@@H](c3nc(-c4cccc(N(C)C)c4)c4ccccn34)C2)cc1` [Compound 10-6] reads 100 to 500 nM; that for `CN(C)c1ccc(NC(=O)N2CCC[C@@H](c3nc(-c4cccc(F)c4)c4ccccn34)C2)cc1` [Compound 10-42], 500 to 1000 nM.
Consider `CN(C)c1ccc(NC(=O)N2CCC[C@@H](c3nc(-c4cnn(Cc5ccccc5)c4)c4ccccn34)C2)cc1` [Compound 10-52], for which the IC50 lay in the range of 1000 to 3000 nM.
The result for `COc1cccc(-c2nc([C@@H]3CCCN(C(=O)Nc4cccc5c4OCO5)C3)n3ccccc23)c1` [Compound 5-35] reads less than 100 nM; that for `CN(C)c1ccc(NC(=O)N2CCC[C@@H](c3nc(-c4cnn(C(F)F)c4)c4ccccn34)C2)cc1` [Compound 10-72], 100 to 500 nM.
The result for `COc1cccc(-c2nc(C3CCCN(C(=O)N(C)c4cccc(F)c4)C3)n3ccccc23)c1` (centres unmarked) [Compound 1-4] reads 500 to 1000 nM.
The result for `CC(C)Cn1nc(C(F)(F)F)cc1-c1nc([C@@H]2CCCN(C(=O)Nc3ccc(N(C)C)cc3)C2)n2ccccc12` [Compound 10-69] reads 500 to 1000 nM; that for `COc1cccc(-c2nc(C3CCCN(C(=O)Nc4cccc(N(C)C)c4)C3)n3ccccc23)c1` (centres unmarked) [Compound 3-24], 100 to 500 nM.
For the compound `COc1cccc(-c2nc(C3CCCN(C(=O)c4ccc(F)cc4C)C3)n3ccccc23)c1` (centres unmarked) [Compound 12-10], the concentration for half-maximal inhibition (IC50) is 1000 to 3000 nM.
The result for `COC(=O)c1cccc(-c2nc([C@@H]3CCCN(C(=O)Nc4ccc(N(C)C)cc4)C3)n3ccccc23)c1` [Compound 10-70] reads less than 100 nM; that for `CN(C)c1ccc(NC(=O)N2CCC[C@@H](c3nc(-c4cccc(S(C)(=O)=O)c4)c4ccccn34)C2)cc1` [Compound 10-59], 1000 to 3000 nM.
The result for `COc1cccc(-c2nc(C3CCCN(C(=O)Nc4ccc(F)cc4)C3)n3ccccc23)c1` (centres unmarked) [Compound 3-1] reads 100 to 500 nM.
As to `CN(C)c1ccc(NC(=O)N2CCC[C@@H](c3nc(-c4ccc5c(c4)CCC5)c4ccccn34)C2)cc1` [Compound 10-26], the IC50 was in the range of 500 to 1000 nM.
On to `COc1cccc(-c2nc([C@@H]3CCCN(C(=O)Nc4cccc(F)c4)C3)n3ccccc23)c1` [Compound 1-14], for which the half-inhibitory concentration (IC50) is 100 to 500 nM.
`COc1cccc(-c2nc(C3CCN(C(=O)Nc4ccc(N(C)C)cc4)CC3)n3ccccc23)c1` [Compound 5-9]: the IC50 was more than 3000 nM.
The result for `COc1ccc(NC(=O)N2CCCC(c3nc(-c4cccc(OC)c4)c4ccccn34)C2)cc1` (centres unmarked) [Compound 3-19] reads 100 to 500 nM.
As to `COc1cccc(-c2nc(C3CCCN(C(=O)NC4CC4)C3)n3ccccc23)c1` (centres unmarked) [Compound 3-11], the IC50 is more than 3000 nM.
With `COc1cccc(-c2nc(C3CCCN(C(=O)Nc4ccc(C)cc4C)C3)n3ccccc23)c1` (centres unmarked) [Compound 5-4], the half-maximal inhibitory concentration (IC50) lay in the range of 100 to 500 nM.
In the case of `Cc1ccc(-c2nc(C3CCCN(C(=O)Nc4ccccc4F)C3)n3ccccc23)cc1` (centres unmarked) [Compound 11-7], the IC50 lay in the range of 1000 to 3000 nM.
The result for `CN(C)c1ccc(NC(=O)N2CCC[C@@H](c3nc(-c4ccccc4CC#N)c4ccccn34)C2)cc1` [Compound 10-65] reads 500 to 1000 nM.
Compound `COc1cccc(-c2nc(C3CCCN(C(=O)Nc4ccccc4F)C3)n3ccc(OC)cc23)c1` (centres unmarked) [Compound 19-2] had a half-maximal inhibitory concentration (IC50) of more than 3000 nM.
With `CCc1ccc(NC(=O)N2CCC[C@@H](c3nc(-c4cccc(OC)c4)c4ccccn34)C2)cc1` [Compound 1-12], the IC50 is less than 100 nM.
`COc1cccc(-c2nc(C3CCCN(C(=O)Nc4ccccc4F)C3)n3c(C)cccc23)c1` (centres unmarked) [Compound 17-3] showed a 50% inhibitory concentration (IC50) of 100 to 500 nM.
The result for `CN(C)c1ccc(NC(=O)N2CCC[C@@H](c3nc(-c4ccc(C(F)F)cc4)c4ccccn34)C2)cc1` [Compound 10-49] reads 100 to 500 nM.
The result for `COc1cccc(-c2nc(C3CCCN3C(=O)Nc3ccccc3F)n3ccccc23)c1` (centres unmarked) [Compound 22-1, N-(2-fluorophenyl)-2-(1-(3-methoxyphenyl)imidazo[1,5-a]pyridin-3-yl)pyrrolidine-1-carboxamide] reads 1000 to 3000 nM.
The result for `CN(C)c1ccc(NC(=O)N2CCC[C@@H](c3nc(-c4ccc5c(c4)OCO5)c4ccccn34)C2)cc1` [Compound 10-27] reads 500 to 1000 nM; that for `COc1cccc(-c2nc(C3CCCN(C(=O)Nc4ccc(N(C)C)cc4)C3)n3ccccc23)c1` (centres unmarked) [Compound 3-25, N-(4-(dimethylamino)phenyl)-3-(1-(3-methoxyphenyl)imidazo[1,5-a]pyridin-3-yl)piperidine-1-carboxamide], less than 100 nM; that for `COc1cccc(-c2nc(C3CCCN(C(=O)N(C)c4ccc(F)cc4)C3)n3ccccc23)c1` (centres unmarked) [Compound 5-2], 1000 to 3000 nM.
`COc1cccc(-c2nc([C@@H]3CCCN(C(=O)Nc4ccccc4N(C)C)C3)n3ccccc23)c1` [Compound 5-37] had a half-maximal inhibitory concentration (IC50) of 100 to 500 nM.
`COc1cccc(-c2nc(C3CCCN(C(=O)Nc4ccccc4F)C3)n3cccc(OC)c23)c1` (centres unmarked) [Compound 19-1] registered a half-inhibitory concentration (IC50) of more than 3000 nM.
On to `CN(C)c1ccc(NC(=O)N2CCC[C@@H](c3nc(-c4cccc(-c5ccccc5)c4)c4ccccn34)C2)cc1` [Compound 10-10], for which the IC50 was more than 3000 nM.
The result for `COc1cccc(-c2nc(C3CCCN(C(=O)c4ccccc4F)C3)n3ccccc23)c1` (centres unmarked) [Compound 12-5] reads 500 to 1000 nM; that for `COc1cccc(-c2nc(C3CCCN(C(=O)c4ccc(OC)c(OC)c4)C3)n3c(OC)cccc23)c1` (centres unmarked) [Compound 14-5], 100 to 500 nM; that for `CN(C)c1ccc(NC(=O)N2CCC[C@@H](c3nc(-c4ccc(OC(F)(F)F)cc4)c4ccccn34)C2)cc1` [Compound 10-14], 1000 to 3000 nM.
The compound `COc1cccc(-c2nc([C@@H]3CCCN(C(=O)NCCCN(C)C)C3)n3ccccc23)c1` [Compound 1-27] displayed an IC50 of 500 to 1000 nM.
